The subject of one data set is PTEN null T-ALL. Description: Diseased Lck/PTEN^fl/fl mice with PTEN null T-ALL. It counts as in vivo. The note with it: 30 mg/kg BID; for leukemia cells: about 125 million at Day 0. As to the method:
Mouse whole blood was incubated with appropriate antibodies and processed using the BD Bioscience BD FACS Lysing Solution according to the manufacturer's instructions. Immediately after lysis, cells were permeabilized with 0.025% Tween-20 in lysing solution for 15 minutes, then incubated with Ki67 antibodies. Single cell suspensions of thymocytes were isolated and stained with the appropriate antibodies as described in Swat, W. et al., Essential role of PI3 Kdelta and PI3 Kgamma in thymocyte survival, Blood 107, 2415-2422 (2006).
All mice were kept in specific pathogen-free facility at Columbia University Medical Center. All procedures were performed in accordance with the guidelines of the Institutional Animal Care and Use Committee. Lck-cre, NOD.Cg-Prkdc^scid Il2rg^tmlWjl/Sz and Gt(ROSA)26Sor^tml(Luc)Kael/J mice were obtained from the Jackson Laboratory. Mice deficient for PTEN in the T-cell lineage were generated by crossing Lck-cre with floxed PTEN. P110γ^−/− and p110δ^−/− mice as described in Swat, W. et al., Essential role of PI3 Kdelta and PI3 Kgamma in thymocyte survival, Blood 107, 2415-2422 (2006). The animals were intercrossed with Lck-cre/PTEN^fl/fl animals to generate mice homozygous mutant for either p110γ or p110δ and PTEN or homozygous mutant for p110γ, 110δ, and PTEN.
Lck/PTEN^fl/fl mice were crossed with the mice having a luciferase cDNA, preceded by a LoxP-stop-LoxP cassette was introduced into the ubiquitously expressed ROSA26 locus. […] The results are consistent with the reduction in whole blood cells and CD4 single positive population of tumor cells.
Lck/PTEN^fl/fl mice having T-ALL were administered with Compound B at an oral dose of 10 mg/kg every 8 hours or DMSO vehicle for a period of 7 days. […] Compound B extended the median survival to 45 days compared to 7.5 days for the vehicle group (data not shown).
Diseased Lck/PTEN^fl/fl mice (i.e. Lck/PTEN^fl/fl mice diagnosed with T-ALL) were treated with Compounds B for a period of 7 days. Mice were examined for sequential blood counts, peripheral smears, and flow cytometric analyses. […] Forward scatter (FSC) and Ki67 staining were indicators of cell size and proliferation, respectively; and apoptosis was detected by assessing the […] population after PI staining.
PTEN^fl/fl mice were crossed with the mice having a luciferase cDNA, preceded by a LoxP-stop-LoxP cassette was introduced into the ubiquitously expressed ROSA26 locus. Progeny were then crossed with Lck-cre transgenics to delete PTEN in T-cell progenitors and induce expression of luciferase. Imaging on T-ALL tumor bearing mice was performed at Day 0 and 4 after treatment of Compound B or vehicle.

A further data set relates to SF-295. Put plainly: pAkt pathway inhibition, SF-295. The note with it: Homo sapiens; SF-295, CNS. It is filed as cell-based.
A further data set has as its system pAkt in solid tumor. Put plainly: pAkt activity, solid tumor. It counts as cell-based. Particulars: N = 14. An excerpt: (§1) Cellular viability and pAkt activity were used to determine effects of Compounds A, C, and D in solid tumor, B-cell malignancies, and T-cell malignancies.
Data set [1] in a line: In vitro metabolism in human liver microsomes. It is filed as in vitro ADME.
Another data set relates to RXF-393. Description: pAkt pathway inhibition, RXF-393. It counts as cell-based. The note with it: Homo sapiens; RXF-393, Renal.
Another data set concerns U251. Put plainly: pAkt pathway inhibition, U251. It is filed as cell-based. Particulars: Homo sapiens, U-251; U251, Glioma.
The next data set has as its target T1, PI3K p110β (Mus musculus, UniProt Q8BTI9).
T1 construct: endogenous in cells; host or cells: murine embryo fibroblasts (MEFs)
Description: Cellular p110β signaling: LPA-stimulated MEFs, pAkt Western blot. Particulars: EC50 p110β, cellular assay. It counts as cell-based, murine. On the technique in general: In western blotting, separated proteins are transferred to a membrane and probed.

Another data set has as its system LNCaP. Description: pAkt pathway inhibition, LNCaP. It counts as cell-based. The note with it: Homo sapiens, Prostate.
The subject of another data set is IGROV-1. Description: Viability (AlamarBlue), IGROV-1. It counts as cell-based. Particulars: Homo sapiens; IGROV-1, Ovarian. As to the method: For primary T-ALL samples, cell viability was determined using the BD Cell Viability kit (BD Biosciences) and fluorescent counting beads as previously described in Armstrong, F. et al., NOTCH is a key regulator of human T-cell acute leukemia initiating cell activity, Blood 113, 1730-1740 (2009). Cells were plated with MS5-DL1 stroma cells. After 72 hours following treatment, cells were harvested and stained with an APC-conjugated anti-human CD45 according to the manufacturer's instructions. For solid tumor cell lines, cellular viability was determined using the AlamarBlue kit (Invitrogen). About 10,000 cells in 100 μL of media containing 10% FBS were aliquoted into individual wells of a 96-well plate and treated with vehicle (DMSO) or compound in triplicate for 24 hours. Ten μL of AlamarBlue reagent was added to each well and incubated for 4 hours at 37° C. with 5% CO2. Fluorescence was measured with an excitation wavelength at 530 to 560 nm and emission wavelength at 590 nm using Spectramax M5 plate reader (Molecular Devices, Sunnyvale, Calif.).
Background: Resazurin is reduced to fluorescent resorufin, in cell work by metabolically active cells.

A further data set has as its system U138MG. Description: pAkt pathway inhibition, U138MG. It counts as cell-based. Particulars: Homo sapiens, U138-MG, Glioma.
Another data set deals with PI3K p110α (Mus musculus, UniProt P42337). Put plainly: Cellular p110α signaling: PDGF-stimulated MEFs, pAkt Western blot. It counts as cell-based, murine.
PI3K p110α, sequence (P42337 whole entry): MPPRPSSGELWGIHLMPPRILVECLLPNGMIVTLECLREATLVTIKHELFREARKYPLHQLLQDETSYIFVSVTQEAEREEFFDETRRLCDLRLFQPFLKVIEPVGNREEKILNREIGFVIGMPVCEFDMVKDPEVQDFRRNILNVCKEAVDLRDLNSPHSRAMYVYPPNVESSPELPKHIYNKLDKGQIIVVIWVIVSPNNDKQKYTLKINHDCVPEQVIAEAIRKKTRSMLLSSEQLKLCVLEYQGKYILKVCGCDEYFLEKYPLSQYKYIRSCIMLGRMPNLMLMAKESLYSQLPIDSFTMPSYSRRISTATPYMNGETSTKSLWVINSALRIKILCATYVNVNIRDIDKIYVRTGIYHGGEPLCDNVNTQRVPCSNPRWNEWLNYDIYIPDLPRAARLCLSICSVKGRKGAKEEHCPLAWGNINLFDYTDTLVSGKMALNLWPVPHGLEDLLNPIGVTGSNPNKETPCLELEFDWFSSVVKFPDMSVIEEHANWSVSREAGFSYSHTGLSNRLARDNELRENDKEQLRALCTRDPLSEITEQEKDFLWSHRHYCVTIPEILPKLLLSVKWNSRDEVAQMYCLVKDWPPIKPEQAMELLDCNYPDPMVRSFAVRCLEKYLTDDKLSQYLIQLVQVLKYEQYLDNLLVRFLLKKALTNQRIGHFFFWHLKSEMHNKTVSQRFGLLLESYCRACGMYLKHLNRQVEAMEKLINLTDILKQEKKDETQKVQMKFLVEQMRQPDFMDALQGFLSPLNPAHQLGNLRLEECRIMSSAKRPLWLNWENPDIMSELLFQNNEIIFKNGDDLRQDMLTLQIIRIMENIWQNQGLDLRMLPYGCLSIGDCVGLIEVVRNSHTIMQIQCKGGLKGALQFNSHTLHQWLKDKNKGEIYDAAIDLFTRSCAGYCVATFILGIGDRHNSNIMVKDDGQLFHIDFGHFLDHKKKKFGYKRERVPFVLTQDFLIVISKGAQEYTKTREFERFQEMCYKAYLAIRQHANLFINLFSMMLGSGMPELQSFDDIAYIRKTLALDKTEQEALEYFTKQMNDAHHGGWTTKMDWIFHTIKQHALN
PI3K p110α, sequence (P26450 whole entry partner): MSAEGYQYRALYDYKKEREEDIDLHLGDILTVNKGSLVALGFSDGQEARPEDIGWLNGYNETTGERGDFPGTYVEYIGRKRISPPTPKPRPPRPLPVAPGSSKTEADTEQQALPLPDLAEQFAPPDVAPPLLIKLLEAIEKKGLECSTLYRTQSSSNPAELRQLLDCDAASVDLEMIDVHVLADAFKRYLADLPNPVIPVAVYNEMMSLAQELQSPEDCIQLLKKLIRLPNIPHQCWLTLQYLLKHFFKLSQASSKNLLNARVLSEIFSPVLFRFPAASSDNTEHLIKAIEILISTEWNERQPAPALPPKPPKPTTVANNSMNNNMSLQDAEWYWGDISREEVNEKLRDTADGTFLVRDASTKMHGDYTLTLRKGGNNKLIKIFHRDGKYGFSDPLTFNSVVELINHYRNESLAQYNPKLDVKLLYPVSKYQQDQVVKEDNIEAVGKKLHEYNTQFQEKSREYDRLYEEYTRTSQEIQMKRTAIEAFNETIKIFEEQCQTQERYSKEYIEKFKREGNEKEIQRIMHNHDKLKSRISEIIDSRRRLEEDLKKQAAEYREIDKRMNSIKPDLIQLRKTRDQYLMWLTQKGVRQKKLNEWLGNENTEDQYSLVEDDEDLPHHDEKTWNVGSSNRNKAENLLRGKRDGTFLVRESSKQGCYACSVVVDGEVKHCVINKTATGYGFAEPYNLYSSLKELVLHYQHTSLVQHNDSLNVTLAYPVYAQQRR
For data set [2], the system named is pAkt in B Cell Malignancies. Put plainly: pAkt activity, B cell malignancies. It counts as cell-based. Particulars: N = 7.
Excerpt: as §1

In the next data set the test system is B Cell Malignancies. Put plainly: Cellular viability, B cell malignancies. Particulars: N = 7. It is filed as cell-based.
Excerpt: as §1

The test system of the next data set is T47D. Put plainly: pAkt pathway inhibition, T47D. It counts as cell-based. Particulars: Homo sapiens, Breast.
The test system of another data set is KM-12. Put plainly: pAkt pathway inhibition, KM-12. It is filed as cell-based. The note with it: Homo sapiens, KM12; KM-12, Colon.
Data set [3] has as its system Akt/PKB phosphorylation in primary T-ALL tumors. Description: Akt/PKB phosphorylation in primary T-ALL tumors. It is filed as cell-based, human. The note with it: primary T-ALL tumors from four patients. On the procedure: Cell lysates (from cell lines or thymocytes) were prepared on ice in M-PER Mammalian Protein Extraction reagent (Pierce) containing a cocktail of protease and phosphatase inhibitors as described in Swat, W. et al., Essential role of PI3 Kdelta and PI3 Kgamma in thymocyte survival, Blood 107, 2415-2422 (2006). Equal amounts of total protein from lysates were separated using SDS-PAGE, transferred to PVDF membrane (Immobilon-P, Millipore). Membranes were incubated overnight incubation with appropriate primary antibodies. Bound antibodies were visualized with HRP-conjugated secondary antibodies and ECL chemistry (SuperPico West, Pierce).

The structures appear in SMILES notation. “And” between values parts separate entries of the source, which are not always exact repeats. Identical values can stand only once.

The values that follow come from patent US20130143902A1, “COMPOSITIONS AND METHODS OF TREATING A PROLIFERATIVE DISEASE WITH A QUINAZOLINONE DERIVATIVE” (GILEAD CALISTOGA LLC, priority 2011, published 2013).

The term EC50 denotes the concentration at which the effect is half-maximal. A word on the GI50: it is the concentration giving 50% growth inhibition. Read a low GI50 as more potent growth inhibition.

T1 sequence (Q8BTI9 whole entry): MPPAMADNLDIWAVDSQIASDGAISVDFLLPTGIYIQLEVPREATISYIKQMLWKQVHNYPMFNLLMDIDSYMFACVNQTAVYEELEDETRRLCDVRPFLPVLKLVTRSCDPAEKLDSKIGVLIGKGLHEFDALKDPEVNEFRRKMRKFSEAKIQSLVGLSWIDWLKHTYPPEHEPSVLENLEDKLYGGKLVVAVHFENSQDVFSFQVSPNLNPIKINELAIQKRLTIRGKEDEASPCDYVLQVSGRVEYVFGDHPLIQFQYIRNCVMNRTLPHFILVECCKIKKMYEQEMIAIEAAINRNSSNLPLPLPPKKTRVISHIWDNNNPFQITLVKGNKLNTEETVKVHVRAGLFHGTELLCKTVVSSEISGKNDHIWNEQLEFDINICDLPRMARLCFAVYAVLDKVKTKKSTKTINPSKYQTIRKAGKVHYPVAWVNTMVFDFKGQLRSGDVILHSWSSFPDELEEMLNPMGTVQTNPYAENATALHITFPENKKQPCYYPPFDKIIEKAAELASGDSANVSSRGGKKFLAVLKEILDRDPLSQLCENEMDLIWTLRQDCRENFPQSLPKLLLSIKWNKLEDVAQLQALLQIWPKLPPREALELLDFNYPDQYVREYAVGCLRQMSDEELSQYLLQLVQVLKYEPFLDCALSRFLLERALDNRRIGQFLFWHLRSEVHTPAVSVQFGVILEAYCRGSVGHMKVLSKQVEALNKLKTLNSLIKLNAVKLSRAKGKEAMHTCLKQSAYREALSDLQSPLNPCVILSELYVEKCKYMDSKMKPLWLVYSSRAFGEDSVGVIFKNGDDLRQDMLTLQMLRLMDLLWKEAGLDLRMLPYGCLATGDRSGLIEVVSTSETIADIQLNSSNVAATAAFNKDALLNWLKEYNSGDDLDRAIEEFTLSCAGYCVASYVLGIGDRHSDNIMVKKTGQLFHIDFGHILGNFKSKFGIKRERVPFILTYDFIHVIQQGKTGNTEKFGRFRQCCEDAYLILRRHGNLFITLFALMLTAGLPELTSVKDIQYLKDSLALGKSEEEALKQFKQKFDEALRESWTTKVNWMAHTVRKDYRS
T1 sequence (P26450 whole entry partner): as the sequence (P26450 whole entry partner) above
Description for PI3K p110α: (§2) To analyze PI3K p110α and p110β signaling, murine embryo fibroblast (MEFs) were removed from FBS and starved for 2 hours followed by stimulation with 10 ng/mL of PDGF (Cell Signaling Technologies, Danvers, Mass.) or 10 μM of LPA (Echelon, Salt Lake City, Utah) for 10 minutes at 37° C., respectively. After washing once in cold phosphate-buffered saline (PBS), the cell pellet was resuspended in 1× cell lysis buffer (Cell Signaling Technologies) supplemented with mini protease inhibitor mix (Roche, Indianapolis, Ind.), phosphate inhibitor cocktail set I and II (Calbiochem, San Diego, Calif.) for 15 minutes on ice. Whole-cell lysates were obtained by centrifugation at 16,000 g for 10 minutes at 4° C., and the soluble protein was analyzed by Western blotting for Akt and pAkt levels. To analyze PI3K p110δ and p110γ signaling, basophil activation was measured in isolated PBMC or whole blood using the Flow2 CAST kit according to the manufacture's standardized methods (Buhlman Laboratories AG, Switzerland). Briefly, p110δ was activated with anti-FCεRI and p110γ was activated with fMLP (2 μM) in the absence or presence of compounds. To monitor the basophil cell population and cellular activation, anti-CD63-FITC and anti-CCR3-PE antibodies were added to each sample. Cells were fixed and analyzed on a FC500 MPL flow cytometer (Beckman Coulter, Brea, Calif.).
Description for PI3K p110β: as §2

On to `CC(Nc1ncnc2[nH]cnc12)c1nc2cccc(Cl)c2c(=O)n1-c1ccccc1` (stereo not shown) [Compound A, 2-(1-(9H-purin-6-ylamino)ethyl)-5-chloro-3-phenylquinazolin-4(3H)-one], for which the CD3 levels result in the data set on PTEN null T-ALL was “reduced”. Besides, the leukemia cells entry is listed as “about 5.6 million” in the data set on PTEN null T-ALL (Day 4) and “about 4.2 million” in the data set with PTEN null T-ALL (Day 7). Besides, in the data set on PTEN null T-ALL (by Day 4), the white blood cells result was “significant reduction”. The EC50 in the data set with SF-295 was 162 nM; with pAkt in solid tumor it was 188 nM; with RXF-393, 25 nM; in the data set on U251, 2250 nM; on PI3K p110β, ~270 nM and 270 nM; in the data set on LNCaP, 34 nM. Further, the EC50 in the data set on U138MG is 2290 nM; on PI3K p110α it was 6000 nM; in data set [2] it was 184 nM; in the data set with B Cell Malignancies, 420 nM; in the data set with T47D, 502 nM; in the data set with KM-12 it was 897 nM. In addition, in [1], the In vitro metabolism result is reported as “Stable in human liver microsomes”. This compound came in with a GI50 in the data set on IGROV-1 of 1300 nM. Also, the Akt/PKB phosphorylation result in data set [3] was “inhibition”.
